Measurements published in patent EP0102404A1, “Novel polycyclic fused pyrazole compounds useful as antiinflammatory agents and preparation thereof” (STERLING DRUG INC., priority 1982, dated 1984).

Experiments:
Format in all cases: in vivo
[1] = tested on: Mature female rats; test: Endocrine profile (thymus, adrenal, body weight, food consumption) after oral medication for 2 weeks; settings: compared with the controls
Description: The test procedures used to determine the biological activities of the compounds of the invention were carried out as follows: • Endocrine Profile: Mature female rats with an average body weight of 202 g and a body weight range of 15 g or less were medicated orally with test compound for 2 weeks. The test compound was prepared as a solution or suspension in 1% gum tragacanth or 0.75% methyl cellulose. On the day following the last medication, the rats were killed and the thymus and adrenal of each rat were removed, cleaned, and weighed. Body weights and food consumptions were also recorded.

[2] = tested on: Male rats; test: Anti-inflammatory activity (a-tocopherol pouch test)
Description: Male rats which weighed 120 g were selected for testing. A rapid subcutaneous injection of 25 mL of air was made between the scapulae of each rat. […] The test compound was administered in daily oral doses for 7 days beginning on the day of pouch formation. The compound to be tested was suspended in 1% gum tragacanth. Twenty-four hours after the last medication, the pouches were dissected free, and the fluid volume was measured.

[3] = tested on: Mature male rats, bilaterally adrenalectomized; test: Glycogenic activity (liver glycogen deposition test); settings: for liver glycogen deposition: adrenalectomized male rats, vehicle 1.75 + 0.04 mg/g
Text: Glycogenic Activity: Mature male rats were bilaterally adrenalectomized 5 days prior to the test. These rats were medicated orally with the test compound for 5 days. Seven hours after the last medication, the rats (which have been fasted overnight) were anesthetized with sodium pentobarbital and a portion of one lobe of the liver was removed and frozen on dry ice for subsequent glycogen determination.

Structure (SMILES)	reduction in adrenal weight ([1]; 100 mg/kg) [%]	reduction in body weight gain ([1]; 100 mg/kg) [%]	reduction in thymus weight ([1]; 100 mg/kg) [%]	activity in the a-tocopherol pouch test ([2]; 100 mg/kg, daily oral doses for 7 days, male rats)	liver glycogen deposition ([3]; 9 mg/kg/day x 5, oral)	liver glycogen deposition ([3]; 27 mg/kg/day x 5, oral)	oral glucocorticoid activity by the liver glycogen deposition test ([3]; rats, oral, result in words)	reduction in adrenal weight ([1]; 5 mg/kg) [%]	reduction in body weight gain ([1]; 5 mg/kg) [%]	reduction in weight of the thymus ([1]; 5 mg/kg) [%]	ED50 ([2]; Rattus norvegicus, 168 h, daily oral doses for 7 days, male rats, inhibition of liquid exudate) [mg/kg]	anti-inflammatory activity by the a-tocopherol pouch test ([2]; rats, result in words)
CCOC(=O)C1(C(=O)OCC)CCC=C2C1CCC1=Cc3c(cnn3-c3ccc(F)cc3)CC12C (stereo not drawn) [Compound II (R = CH2CH3), Diethyl 8-(4-fluorophenyl)-2,3,4,4a,5,6,11,11a-octahydro-11a-methyl-8H-phenanthro[2,3-c]pyrazole-4,4-dicarboxylate]	47	186	80	inactive								
CC(=O)C1CC=C2C(CCC3=Cc4c(cnn4-c4ccc(F)cc4)CC32C)C1C(C)=O (single isomer, unassigned) [Compound I (R = CH3), 1,1'-[8-(4-Fluorophenyl)-2,3,4,4a,5,6,11,11a-octahydro-11a-methyl-8H-phenanthro[2,3-c]pyrazole-3,4-diyl]bis[ethanone]]					9.42 + 0.65 mg/g of tissue	25.48 + 3.39 mg/g of tissue	oral glucocorticoid activity	40	80	59	23	anti-inflammatory activity
